“Also recorded” adds a separate entry of the source. Where two headings read alike, the source gives them in different places.
How the values were obtained:
[1] = system: human Aβ infusion mouse model; assay: Human Aβ infusion mouse model, Y maze behavioral assay; assay type: in vivo; conditions: 1.25, 2.5, 5, and 10 mg/kg
From the text: (§1) Once per day treatment will begin at day 21 after start of Aβ ICV infusion and continue for 14 days. Beginning at day 50 after start of Aβ ICV infusion, the Y maze test of spontaneous alternation will be used to evaluate hippocampus dependent spatial learning as described previously (Craf et al., J Mol. Neurosci. 24:115-122, 2004a). Briefly, each mouse will be placed in the “start” arm and then released to choose one of the two other arms. The mouse will be blocked from exiting the chosen arm for 30 s then they will be placed back in the start arm and released again to choose one of the two other arms. If the second choice is different from the first one, the mouse will be scored as alternating. Mice will be tested for 10 days with one trial per day, and a mean percent alternation will be calculated for each mouse. […] The brain will be removed and longitudinally bisected as described previously (Craft et al., Neurobiolo Aging 25:12834292, 2004b). […] The hippocampus will be dissected from the left half of the brain and snap-frozen for subsequent biochemical evaluation.

[2] = system: nitric oxide (NO) production in BV-2 microglial cells; assay: LPS-stimulated accumulation of nitrite (NO metabolite) in BV-2 cells, Griess assay; assay type: cell-based, mouse; conditions: Mus musculus, read-out: NO, concentration required for 50% inhibition
[3] = system: human Aβ infusion mouse model; assay: Human Aβ infusion mouse model, hippocampal neuroinflammation and synaptic biochemical endpoints; assay type: in vivo; conditions: hippocampus, Aβ-infused mice, oral compound
Experimental: The study design and treatment paradigm for intracerebroventricular (ICV) infusion of human oligomerie Aβ1-42 into the mouse will be as described previously (Craft et al., Neurobiol Aging 25:1283-1292, 2004b), except that compound administration will be by mouth. Female C57Bl/6 mice (Harlan) weighing 20-25 g (3-4 months old) will be housed in a pathogen free facility under an approximate 12 h/12 h dark and light cycle and they will have access ad libitum to food and water.
as §1
S100B levels in hippocampal supernatants will be measured by a empium-based ELISA essentially as previously described (Van Eldik and Griffin, Biochem Biophys Acta 1223:398-403, 1994). Synaptophysin levels in hippocampal supernatants will be quantified by ELISA following the procedure described previously (Craft at al, 20041, supra). PSD-95 levels will be determined by Western blots using anti-PSD-95 antibodies (1:100,000 dilution; Upstate Biotechnology) as described (Craft et al., 2004b).
It was previously shown that Aβ-induced neuroinflammation is an early event associated with the onset and progression of pathophysiology, and can be suppressed by an inhibitor of glial activation. Female C57Bl/6 mice (Harlan) weighing […] (3-4 months old) were housed in a pathogen free facility under an approximate 12 h/12 h dark and light cycle and had access ad libitum to food and water. All animal procedures were approved by the Northwestern Animal Care and Use Committee.

[4] = system: LPS-induced IL-1β production in BV-2 microglia cells; assay: LPS-induced IL-1β production in BV-2 microglial cells; conditions: Mus musculus, BV-2, 16 h, read-out: IL-1β, concentration required for 50% inhibition
[5] = system: QT interval in Lead II electrocardiogram, anesthetized guinea pigs; assay: Cardiac QT interval prolongation assay in anesthetized guinea pigs; conditions: 15 mg/kg PO
Experimental: The QT interval studies are performed by evaluating compounds for effects on QT interval in Lead II electrocardiograms measured in anesthetized guinea pigs (Hirohashi et al., 1991, Arzneim.-Forsch./Drug Res 41:9-18), one of the species recommended in the FDA white paper. Vehicle or compound is administered orally at 15 mg/kg (dosing volume of 10 ml/kg) to groups of male guinea pigs (weighing 330-350 g), with 5 animals per group. […] Heart rate, arterial blood pressure, and QT intervals are measured at baseline, and at 15, 30, 45, and 60 min after compound administration. Sotalol administered iv at 0.3 mg/kg serves as the positive control compound. The QT intervals are corrected for changes in heart rate using both Bazetes and Fridericia's formulae. Any increase in QT interval values over baseline values exceeding the upper 95% confidence limit of the mean changes at the corresponding time point in the vehicle-treated control group for two consecutive observation times indicates significant QT interval prolongation in the individually treated animals.
The QT intervals (QTc) were corrected for changes in heart rate using both Bazett's and Fridericia's formulae.
The test substance was dissolved in 2% Tween 80 and administered by oral administration. The substance was treated at 15 mg/kg with a dosing volume of 10 ml/kg. Duncan Hartley derived guinea pigs provided by MDS Pharma Services—Taiwan Ltd were used. Sotalol was obtained from Sigma, USA.
Groups of guinea pigs (weighing 330-350 g) with 5 animals each were employed. The animals were anesthetized with urethane (1500 mg/kg, IV bolus injection in a volume of 5 ml/kg) and breathed spontaneously. Lead II ECG was obtained with subdermal needle electrodes and ECG signal conditioner. Heart rate was measured with a pulse rate tachometer. The carotid artery was cannulated with a catheter that was connected to a pressure transducer and a pressure processor for measurements of arterial blood pressure (BP). […] QTC intervals were obtained by correction for heart rate changes using Bazett's and Fridericia's formulae. Increase in QTc interval in individual treated guinea pigs that lies outside the upper limit of 95% confidence limits (mean±SD) of the changes for the vehicle-treated control at corresponding time points for two consecutive times is considered significant.

[6] = system: liver histology, mice; assay: Chronic, therapeutic dose liver toxicity assay
From the text: (§2) Mice will be anesthetized and sacrificed as described above. Livers will be removed, fixed in 4% (v/v) paraformaldehyde and paraffin-embedded for histology. To assess histological toxicity, 4 μm liver sections will be stained with haematoxylin and eosin. Two independent observers blinded to the treatment groups will perform microscopic assessment of the tissue for injury.
After two weeks of treatment, mice are sacrificed and liver toxicity analyzed as described above. For each chronic toxicity assay, 5 mg of compound is required.
as §2, with “were” for “will be”, “killed” for “sacrificed”, “paraformaldehyde,” for “paraformaldehyde”, “pan” for “μm”, “hematoxylin” for “haematoxylin”, “performed” for “will perform”

[7] = mouse, in vivo
[8] = Caccia et al., 1985; cited from earlier work

SMILES | prevention of Y-maze behavioral deficit [1] | loss of PSD-95 [3] | loss of synaptophysin [3] | up-regulation of IL-1β [3] | up-regulation of S100B [3] | liver toxicity score versus control mice ([6]; mouse, in vivo, po, […]) | further results
Cc1cc(-c2ccccc2)nnc1N1CCN(c2ncccn2)CC1 [MW01-2-151SRM, 4-methyl-6-phenyl-3-(4-pyrimidin-2-ylpiperazin-1-yl)pyridazine] | significantly effective | prevented | prevented | blocked | blocked | no significant differences | IC50 ([2]; LPS-stimulated BV-2 cells, 16 hrs): > 25 µM; IC50 [4]: 8.3 ± 5.8 µM; effect on heart rate [5]: no significant effects; effect on mean blood pressure [5]: no significant effects; QTc / QT interval prolongation ([5]; 60 min post-dosing, 5 guinea pigs): did not cause any significant prolongation; also recorded: Neither compound increased
c1ccc(-c2cc(-c3ccccc3)c(N3CCN(c4ncccn4)CC3)nn2)cc1 [MW01-5-188WH, 4,6-diphenyl-3-(4-pyrimidin-2-ylpiperazin-1-yl)pyridazine] | – | – | – | – | – | no significant differences | IC50 ([2]; BV-2, 16 h): > 25 µM; oral bioavailability properties [7]: good oral bioavailability; time of decline to basal levels / bulk clearance, plasma/blood ([7]; po): ≤ 120 min
c1ccc(-c2cc(-c3ccncc3)c(N3CCN(c4ncccn4)CC3)nn2)cc1 [MW01-6-189WH, 4-pyridyl-6-phenyl-3-(4-pyrimidin-2-ylpiperazin-1-yl)pyridazine] | significantly effective | prevented | trend toward preventing | blocked | blocked | – | liver toxicity score versus control mice ([6]; C57Bl/6 mice, […] oral, 2 weeks, scale 0 (best) to 9 (worst)): no significant differences
Cc1cc(-c2ccccc2)nnc1NCCN1CCOCC1 [minaprinc, minaprine] | – | – | – | – | – | – | brain/blood ratio [8]: about 2

— US9408845B2, “Formulations containing pyridazine compounds” (Northwestern University, priority 2006, dated 2016)
